Measurements as given in paper PMC10709440, “High-throughput ligand profile characterization in novel cell lines expressing seven heterologous insect olfactory receptors for the detection of volatile plant biomarkers” (Scientific Reports, 2023).
Where two headings read alike, the source gives them in different places.

Key:
[1] = target: T1, Drosophila OR85b (Drosophila melanogaster, UniProt Q9VHQ7); assay: Calcium ion fluorescence (GCaMP6) assay, OR85b stable HEK293 cell line; format: cell-based; conditions: for OR85b response (VUAA1-normalized) at 1 μM / OR85b response (VUAA1-normalized) at 10 μM / OR85b response (VUAA1-normalized) at 100 μM / Average response: OR85b cell line; for OR85b response (VUAA1-normalized) at 1 μM: VOC concentration 1 μM; for OR85b response (VUAA1-normalized) at 10 μM: VOC concentration 10 μM; for OR85b response (VUAA1-normalized) at 100 μM: VOC concentration 100 μM; for Average response: VUAA1-normalized response, mean of biological replicates
T1 construct: expressed in transfected cells
T1 sequence (Q9VHQ7 1-390): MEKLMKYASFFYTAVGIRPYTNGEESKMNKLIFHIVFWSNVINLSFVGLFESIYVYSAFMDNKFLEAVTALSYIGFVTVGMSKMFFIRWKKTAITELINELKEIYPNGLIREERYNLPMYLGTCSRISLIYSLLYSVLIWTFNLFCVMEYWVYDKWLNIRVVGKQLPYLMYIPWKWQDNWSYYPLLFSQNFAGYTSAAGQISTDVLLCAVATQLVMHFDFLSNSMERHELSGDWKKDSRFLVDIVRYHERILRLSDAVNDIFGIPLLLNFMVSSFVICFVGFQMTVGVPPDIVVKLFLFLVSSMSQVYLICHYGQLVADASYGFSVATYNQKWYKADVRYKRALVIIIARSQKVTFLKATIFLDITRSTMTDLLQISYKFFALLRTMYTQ
T1 sequence (Q9VNB5 1-486 partner): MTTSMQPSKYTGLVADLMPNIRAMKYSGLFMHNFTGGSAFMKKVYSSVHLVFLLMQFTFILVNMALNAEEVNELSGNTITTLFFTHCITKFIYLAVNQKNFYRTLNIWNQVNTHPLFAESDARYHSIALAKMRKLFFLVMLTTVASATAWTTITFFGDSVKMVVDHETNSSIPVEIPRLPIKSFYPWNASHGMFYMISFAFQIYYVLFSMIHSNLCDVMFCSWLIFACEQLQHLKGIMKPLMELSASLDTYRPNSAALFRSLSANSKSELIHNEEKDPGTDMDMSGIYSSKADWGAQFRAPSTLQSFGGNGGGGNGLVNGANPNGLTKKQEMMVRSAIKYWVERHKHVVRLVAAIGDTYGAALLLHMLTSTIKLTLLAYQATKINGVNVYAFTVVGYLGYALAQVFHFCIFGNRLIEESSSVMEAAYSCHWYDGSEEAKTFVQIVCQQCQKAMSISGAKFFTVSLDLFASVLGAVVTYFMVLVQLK
Summary of the method: (§1)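 Responses are VUAA1-normalized ΔF: each VOC-evoked calcium signal, (FMAX−F0)/F0 over 30 s after injection, divided by the same line's mean 50 µM VUAA1 response. Cells were doxycycline-induced HEK293 with GCaMP6 and the cognate Drosophila OR, in HEPES buffer pH 7.3; ligands tested 0.01–100 μM.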

[2] = target: T2, Drosophila OR10a (Drosophila melanogaster, UniProt Q9VYZ1); assay: Calcium ion fluorescence (GCaMP6) assay, OR10a stable HEK293 cell line; format: cell-based; conditions: for DF norm, all technical replicates / DF norm, outlier technical replicates removed / DF, outlier technical replicates removed / DF, all technical replicates: 100 µM, single plate 2019.12.05; for DF norm, all technical replicates / DF norm, outlier technical replicates removed / DF, outlier technical replicates removed / DF, all technical replicates / EC50: OR10a clone G5; for DF, all technical replicates: xc+0.1%DMSO; for EC50: single-concentration estimate from 100 µM, plate 2019.12.05; for activation at 1 µM / activation at 10 µM / activation at 100 µM: 50 μM VUAA1 = 1, responses not exceeding 0.05 considered 0; for OR10a response (VUAA1-normalized) at 1 μM / OR10a response (VUAA1-normalized) at 10 μM / OR10a response (VUAA1-normalized) at 100 μM: OR10a cell line; for OR10a response (VUAA1-normalized) at 1 μM: VOC concentration 1 μM; for OR10a response (VUAA1-normalized) at 10 μM: VOC concentration 10 μM; for OR10a response (VUAA1-normalized) at 100 μM: VOC concentration 100 μM
T2 construct: expressed in transfected cells
T2 sequence (Q9VYZ1 1-406): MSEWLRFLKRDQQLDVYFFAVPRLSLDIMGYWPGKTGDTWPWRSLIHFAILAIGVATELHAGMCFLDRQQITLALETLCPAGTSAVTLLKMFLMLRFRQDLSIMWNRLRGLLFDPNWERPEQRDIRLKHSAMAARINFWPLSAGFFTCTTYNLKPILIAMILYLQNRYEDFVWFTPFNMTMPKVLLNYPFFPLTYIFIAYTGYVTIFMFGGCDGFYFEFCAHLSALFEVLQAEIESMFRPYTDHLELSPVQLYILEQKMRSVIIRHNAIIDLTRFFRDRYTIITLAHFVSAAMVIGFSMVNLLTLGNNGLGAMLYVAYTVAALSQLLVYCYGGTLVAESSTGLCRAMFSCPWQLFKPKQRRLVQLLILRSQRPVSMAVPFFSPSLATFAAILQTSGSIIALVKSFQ
T2 sequence (Q9VNB5 1-486 partner): T1 sequence (Q9VNB5 1-486 partner)
Summary of the method: as §1

[3] = ligand concentration 1 (unit not given), threshold 0.05, below shown as 0
[4] = ligand concentration 10 (unit not given), threshold 0.05, below shown as 0
[5] = ligand concentration 100 (unit not given), threshold 0.05, below shown as 0
[6] = HEK293, 1 μM VOC, read-out: OR10a Average response (VUAA1-normalized)
[7] = HEK293, 10 μM VOC, read-out: OR10a Average response (VUAA1-normalized)
[8] = HEK293, 100 μM VOC, read-out: OR10a Average response (VUAA1-normalized)
[9] = ligand concentration 10 (unit not given), 0.05 threshold, values below shown as 0
[10] = ligand concentration 100 (unit not given), 0.05 threshold, values below shown as 0

| Structure (SMILES) | OR85b response (VUAA1-normalized) at 1 μM [1] | OR85b response (VUAA1-normalized) at 10 μM [1] | OR85b response (VUAA1-normalized) at 100 μM [1] | Average response ([1]; cc. 1 µM) | Average response ([1]; cc. 10 µM) | Average response ([1]; cc. 100 µM) | DF norm AVERAGE OR85b [1, 3] | DF norm AVERAGE OR85b [1, 4] | DF norm AVERAGE OR85b [1, 5] | DF norm, all technical replicates [2] | DF norm, outlier technical replicates removed [2] | activation at 1 µM [2, 6] [%] | activation at 10 µM [2, 7] [%] | activation at 100 µM [2, 8] [%] | OR10a response (VUAA1-normalized) at 1 μM [2] | OR10a response (VUAA1-normalized) at 10 μM [2] | OR10a response (VUAA1-normalized) at 100 μM [2] | DF norm AVERAGE OR10a [2, 3] | DF norm AVERAGE OR10a [2, 4] | DF norm AVERAGE OR10a [2, 5] | other results |
| --- | --- | --- | --- | --- | --- | --- | --- | --- | --- | --- | --- | --- | --- | --- | --- | --- | --- | --- | --- | --- | --- |
| COC(=O)c1ccccc1 [methyl benzoate] | 0.00 | 0.00 | 0.00 | 0.00 | 0.00 | 0.00 | 0 | 0 | 0 | 0.8079 | 0.8079 | 31 | 64 | 67 | 0.31 | 0.64 | 0.67 | 0.3063 | 0.6425 | 0.6719 | DF, outlier technical replicates removed [2]: 1.408; DF, all technical replicates [2]: 1.408; EC50 ([2]; EC50, all technical replicates): 23.8 µM; EC50 ([2]; EC50, outlier technical replicates removed): 23.8 µM |
| C=C1CCC2(C(C)C)CC12 (stereo not shown) [sabinene] | 0.0647 | 0.00 | 0.09 | 0.0647 | 0.0439 | 0.09 | 0.06468 | 0 | 0.08701 |  |  |  |  |  | 0.00 | 0.00 | 0.00 | 0 | 0 | 0 | activation at 1 µM ([2]; HEK293, read-out: OR10a Average response (VUAA1-normalized), 1 μM VOC): 0%; activation at 10 µM ([2]; HEK293, read-out: OR10a Average response (VUAA1-normalized), 10 μM VOC): 0%; activation at 100 µM ([2]; HEK293, read-out: OR10a Average response (VUAA1-normalized), 100 μM VOC): 3.23% |
| CC/C=C\CCOC(C)=O [z3-hexenyl acetate] |  |  |  | 0.15 | 0.00 | 0.00 |  |  |  | 0 | 0 | 14 | 0 | 0 |  |  |  |  |  |  | DF norm AVERAGE OR85b ([1]; ligand concentration 1 (unit not given), 0.05 threshold, values below shown as 0): 0.1453; DF norm AVERAGE OR85b [1, 9]: 0; DF norm AVERAGE OR85b [1, 10]: 0; DF, outlier technical replicates removed [2]: 0; DF, all technical replicates [2]: 0; DF norm AVERAGE OR10a ([2]; ligand concentration 1 (unit not given), […]): 0.1361; DF norm AVERAGE OR10a [2, 9]: 0; DF norm AVERAGE OR10a [2, 10]: 0 |
| OCCc1ccccc1 [phenethyl alcohol] | 0.10 | 0.0758 | 0.00 | 0.10 | 0.0758 | 0.04 | 0.09884 | 0.07579 | 0 |  |  | 3 | 6 | 3 | 0.00 | 0.06 | 0.00 | 0 | 0.05732 | 0 |  |
